# Values joined by “and” are separate entries in the source; they are usually repeats but may differ in a detail not shown here. Identical values can stand only once.
# Tests used:
# [1] = biological target: T1, FGF1 (Homo sapiens, UniProt P05230); assay: Fluorescence spectroscopy binding constant of FGF1 and suramin derivatives; conditions: fluorescence quenching, 5 µM FGF1, non-linear regression with Stern–Volmer equation, pH 6.5
# T1 construct: made in house
# Method: The binding constant Kd was calculated for FGF1 and the five derivatives in a buffer containing 10% D2O, 50 mM AMS, 20 mM phosphate buffer, and 50 mM NaCl at pH 6.5 using an F-2500 Hitachi fluorescence spectrophotometer.
# […] has tremendous significance for biochemical application because it provides valuable knowledge about the probability of quencher activity. The anti-mitogenic activity of the five compounds was achieved by the same mechanism in which suramin inhibits the mitogenic activity of FGF1. A non-linear regression curve was plotted for the relative intensities of activity versus drug concentration using the Stern–Volmer equation (Eq. 1). log(F0−F)/F=logK+nlog[Q], (1)
# where F0 represents the fluorescence intensity in the absence of the compounds, and F represents the fluorescence intensity in the presence of the [Q] concentration of the compounds.
# Increasing concentrations of these five suramin derivatives were added to a solution containing 5 µM FGF1. A reduction in the fluorescence intensity was reported for all five suramin derivatives. The Stern–Volmer equation was used to calculate the binding constant between FGF1 and compounds 14, 15, 17, 18, and 21 for relative intensities versus the total concentration in a non-linear regression curve.
# [2] = WST-1 assay, cytotoxicity in tumorigenic cells; assay type: cell-based, human; conditions: human; MCF-7 cells, 48 h, SigmaPlot; read-out: estimated IC50 (cytotoxicity)
# Method: (§1) The water-soluble tetrazolium salt (WST-1) assay was performed to assess the effects of the compounds on cell proliferation and cytotoxicity. DMEM/F12 containing 10% FBS was used for the cell culture, and incubation was performed in 5% CO2 till the logarithmic growth phase was achieved. On the day before the experiment, the cells were trypsinized and seeded in a 96-well plate at a density of 5000 cells/well. For the FGF1-stimulated cell proliferation assay, the cells were then incubated for 24 h in a serum-free medium containing 0.1% bovine serum albumin (BSA). Serum-starved cells with or without a specified concentration of suramin, 14, 15, 17, 18, 21, and FGFRD2 were stimulated with 100 nM of FGF1 again for 48 h. For the purpose of the cytotoxicity assay, the cells were treated with an increased concentration of suramin and compounds 14, 17, 15, 18, and 21 (Figure 6) for 48 h. Also, 1/10 of the volume of WST-1 cell reagent was inserted in every well and maintained at 37°C for another 4 h before harvesting. There was gentle agitation of the medium in the cell culture plate for 10 min using a shaker. A Synergy 2 microplate reader (BioTek Instruments, Inc., VT, United States) was used to measure the absorbance at 450 nm. The relative absorbance was compared with the control treatment to determine the relative cell number.
# (§2) […] […] The reason for the higher cytotoxicity was the presence of methyl groups on the suramin structure ([Martello et al., 2001]).
# (§3) Suramin-induced neuropathy may depend on the effects on calcium (Ca^2+) homeostasis as a potential pathological mechanism, and the full or partial positive charge of the element when directly attached to the ring at each of the sulphonic groups (HSO3). These interactions exert a moderate to strong electron-withdrawing inductive effect, which may be responsible for the observed suramin cytotoxicity ([Prasetyaningrum et al., 2018]; [Von Der Ahe et al., 2018]). The cytotoxicity of the synthesized analogs was lower as there were methyl groups and no sulfonic acid groups attached to the suramin backbone. The IC50 values of the synthesized compounds in MCF-7 breast cancer cells were analyzed using SigmaPlot software.
# [3] = tested on: MCF-7 cells; assay: WST-1 assay, cytotoxicity in tumorigenic cells; assay type: cell-based, human; conditions: for Mean (Blank 450) / Fold (mean) / Blank 450 / Fold: S8; for Fold (mean): relative to control; for Blank 450: single replicate absorbance; for Fold: single replicate relative to control; for cytotoxicity compared with suramin: MCF-7 cells, 1-100 µM, 48 h, especially at concentrations higher than 10 µM
# Method: as §1, §2, §3
# [4] = WST-1 assay, cytotoxicity in normal breast epithelial cell line (non-tumorigenic); assay type: cell-based; conditions: human; non-tumorigenic MCF-10A cells; read-out: estimated IC50 (cytotoxicity)
# Method: as §1
# In order to gain some insight about the selectivity of the compounds between tumorigenic and non-tumorigenic cells, the cytotoxicity was also being evaluated against normal breast cell lines by examining the cytotoxicity of suramin and its derivatives, compounds 15, 18, and 21, in a normal breast epithelial cell line (non-tumorigenic), MCF-10A. […] Compared to their cytotoxicity in tumorigenic MCF-7 cells (Figure 6), the estimated IC50 values in MCF-10A were higher than those in MCF-7 cells. […] However, the estimated IC50 value of suramin and its derivatives in both non-tumorigenic MCF-10A and tumorigenic MCF-7 cells were over 100 μM. The effective concentrations of suramin and its derivatives to attenuate FGF1-stimulated cell proliferation in MCF-7 cells were around 1 μM (Figure 5), which is non-toxic concentration to both MCF-7 cells and MCF-10A cells. […] Therefore, in addition to the specificity of each drug, the selectivity of suramin and its derivatives to disrupt the FGF1/FGFR-mediated breast cancer growth might rely on the overexpression or amplification of FGFR2 in breast cancer cells, but not in normal cells, and the secreted FGF1 ligand by autocrine or paracrine effects from cancer cells or their surrounding stroma cells or adipocytes (tumor microenvironment). The statistical data for the cytotoxicity are shown in Supplementary Figure S8.
# [5] = tested on: MCF-7 cells; assay: WST-1 assay, FGF1-stimulated cell proliferation; assay type: cell-based, human; conditions: serum-starved MCF-7, 100 nM FGF1, 100 nM, 500 nM and 1 µM of test substance, 48 h
# Method: as §1
# Cell proliferation was measured using the WST-1 assay. […]
# T1 sequence (P05230 whole entry): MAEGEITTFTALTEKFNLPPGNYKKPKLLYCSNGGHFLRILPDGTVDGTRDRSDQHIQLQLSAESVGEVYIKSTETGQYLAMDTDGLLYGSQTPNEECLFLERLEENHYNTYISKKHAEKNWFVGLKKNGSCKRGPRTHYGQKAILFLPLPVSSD
SMILES,Kd [1] [µM],IC50 at 48 h [2] [µM],Mean (Blank 450) ([3]; 1 uM),Fold (mean) ([3]; 1 uM),Blank 450 ([3]; 1 uM),Fold ([3]; 1 uM),Mean (Blank 450) ([3]; 5 uM),Fold (mean) ([3]; 5 uM),Blank 450 ([3]; 5 uM),Fold ([3]; 5 uM),Mean (Blank 450) ([3]; 10 uM),Fold (mean) ([3]; 10 uM),Blank 450 ([3]; 10 uM),Fold ([3]; 10 uM),Mean (Blank 450) ([3]; 50 uM),Mean (Blank 450) ([3]; 100 uM),Fold (mean) ([3]; 100 uM),Blank 450 ([3]; 100 uM),Fold ([3]; 100 uM),cytotoxicity compared with suramin [3],further results
"O=C(Nc1ccc(C(=O)Nc2cc(S(=O)(=O)O)cc3cc(S(=O)(=O)O)cc(S(=O)(=O)O)c23)s1)Nc1ccc(C(=O)Nc2cc(S(=O)(=O)O)cc3cc(S(=O)(=O)O)cc(S(=O)(=O)O)c23)s1 [Compound 21, Sodium 8,8'-((5,5'-(carbonylbis (azanediyl))bis (thiophene-5,2-diyl-2-carbonyl))bis (azanediyl)) bis (naphthalene-1,3,6-trisulfonate)]",15.9,> 100,1.167,1.00,1.107 and 1.215 and 1.169 and 1.177,0.950 and 1.043 and 1.003 and 1.010,1.178,1.01,1.145 and 1.151 and 1.183 and 1.233,0.983 and 0.988 and 1.015 and 1.058,1.163,1.00,1.136 and 1.167 and 1.187 and 1.163,0.975 and 1.002 and 1.019 and 0.998,1.124,1.021,0.88,1.046 and 1.075 and 0.916,0.898 and 0.923 and 0.786,less toxic,Fold (mean) ([3]; 50 uM): 0.96; Blank 450 ([3]; 50 uM): 1.137 and 1.128 and 1.113 and 1.119; Fold ([3]; 50 uM): 0.976 and 0.968 and 0.955 and 0.960; IC50 at 48 h [4]: 628 ± 1.45 µM
Cc1ccc(C(=O)Nc2ccc(S(=O)(=O)O)c3cc(S(=O)(=O)O)cc(S(=O)(=O)O)c23)cc1NC(=O)c1cccc(NC(=O)Nc2cccc(C(=O)Nc3cc(C(=O)Nc4ccc(S(=O)(=O)O)c5cc(S(=O)(=O)O)cc(S(=O)(=O)O)c45)ccc3C)c2)c1 [suramin],,> 100,1.211,1.04,1.289 and 1.186 and 1.173 and 1.197,1.106 and 1.018 and 1.007 and 1.027,1.160,1.00,1.137 and 1.217 and 1.147 and 1.138,0.976 and 1.044 and 0.984 and 0.977,1.116,0.96,1.187 and 1.064 and 1.159 and 1.052,1.019 and 0.913 and 0.995 and 0.903,1.004,0.817,0.70,0.795 and 0.82 and 0.838 and 0.816,0.682 and 0.704 and 0.719 and 0.700,highest among all the analogs,Fold (mean) ([3]; 50 uM): 0.86; Blank 450 ([3]; 50 uM): 0.936 and 0.988 and 1.088 and 1.004; Fold ([3]; 50 uM): 0.803 and 0.848 and 0.934 and 0.862; IC50 at 48 h [4]: 222 ± 2.4 µM
"O=C(Nc1ccc(C(=O)Nc2ccc(C(=O)Nc3cccc4cc(S(=O)(=O)O)ccc34)cc2)cc1)Nc1ccc(C(=O)Nc2ccc(C(=O)Nc3cccc4cc(S(=O)(=O)O)ccc34)cc2)cc1 [Compound 17, Sodium 5,5'-((4,4'-((4,4'-(carbonylbis (azanediyl))bis (benzoyl))bis (azanediyl))bis (benzoyl))bis(azanediyl)) bis (naphthalene-2-sulfonate)]",10.1,> 100,0.226,1.01,0.235 and 0.232 and 0.211 and 0.225,1.055 and 1.042 and 0.947 and 1.010,0.222,1.00,0.201 and 0.215 and 0.233 and 0.239,0.902 and 0.965 and 1.046 and 1.073,0.220,0.99,0.218 and 0.227 and 0.225 and 0.209,0.979 and 1.019 and 1.010 and 0.938,,0.208,0.93,0.197 and 0.209 and 0.218 and 0.206,0.884 and 0.938 and 0.979 and 0.925,less toxic,effect on FGF1-stimulated cell proliferation [5]: more potent inhibitory effects; Mean (Blank 450) ([3]; 0.5 uM): 0.233; Fold (mean) ([3]; 0.5 uM): 1.04; Blank 450 ([3]; 0.5 uM): 0.241 and 0.231 and 0.216 and 0.243; Fold ([3]; 0.5 uM): 1.082 and 1.037 and 0.970 and 1.091
"O=C(Nc1ccc(C(=O)Nc2cccc3cc(S(=O)(=O)O)ccc23)cc1)Nc1ccc(C(=O)Nc2cccc3cc(S(=O)(=O)O)ccc23)cc1 [Compound 14, Sodium 5,5'-((4,4'-(carbonylbis (azanediyl))bis (benzoyl))bis (azanediyl)) bis (naphthalene-2-sulfonate)]",13.7,> 100,0.231,1.03,0.248 and 0.227 and 0.205 and 0.242,1.113 and 1.019 and 0.920 and 1.086,0.225,1.01,0.219 and 0.241 and 0.23 and 0.208,0.983 and 1.082 and 1.033 and 0.934,0.211,0.95,0.206 and 0.193 and 0.225 and 0.218,0.925 and 0.866 and 1.010 and 0.979,,0.198,0.89,0.209 and 0.195 and 0.181 and 0.208,0.938 and 0.875 and 0.813 and 0.934,less toxic,effect on FGF1-stimulated cell proliferation [5]: more potent inhibitory effects; Mean (Blank 450) ([3]; 0.5 uM): 0.233; Fold (mean) ([3]; 0.5 uM): 1.04; Blank 450 ([3]; 0.5 uM): 0.228 and 0.253 and 0.244 and 0.205; Fold ([3]; 0.5 uM): 1.024 and 1.136 and 1.095 and 0.920

# Source: PMC8763243, “Synthesis of Novel Suramin Analogs With Anti-Proliferative Activity via FGF1 and FGFRD2 Blockade” (Frontiers in Chemistry, 2022)
